# Measured values reported in patent US20180282819A1, “Targeting the Histone Pathway to Detect and Overcome Anthracyclin Resistance” (ONTARIO INSTITUTE FOR CANCER RESEARCH (OICR), priority 2015, published 2018).
# Columns and labels:
# Assay type in all cases: cell-based, human
# [1] = system: all four epirubicin-resistant cell lines (MDA-MB-231, MCF7, SKBR3, ZR-75-1); experiment: Drug resistance and cross resistance, CCK-8 viability; details: 72 h
# Procedure: Native and resistant cells were exposed to drug concentrations ranging from 0.3 nM to 3000 nM. Cell viability was determined 72 h later by CCK-8 assay. A) Percent of live cells relative to DMSO control was plotted against epirubicin concentration. Black=native cells, magenta=resistant cells. B) IC50 values in nM concentration±standard deviation. Resistance factor is shown in parenthesis and represents resistant IC50/native IC50.
# Breast cancer cell lines (MDA-MB-231, MCF7, ZR-75-1, SKBR3) were purchased from ATCC and cultured in DMEM (except SKBR3, cultured in RPMI) supplemented with 10% heat-inactivated fetal bovine serum and 1% L-glutamine (Gibco, Burlington, Canada). Epirubicin-resistant cell lines were generated by exposing native cells to increasing concentrations of epirubicin with an initial concentration set at 0.5 nM. Resistance was defined when IC50 value superseded the IC50 value of the corresponding native cell line, and resistant cells could not tolerate further increase in drug concentration. Drug resistance and cross resistance were determined by exposing cells to drug concentrations ranging from 0.3-3000 nM for 72 h. Cell viability was determined by Cell Counting Kit-8 (CCK-8, Dojindo, Cedarlane, Burlington, Canada). IC50 were calculated in GraphPad Prism5.
# ZR-75-1 10 nM-Resistant = experiment: Proliferation, cell-doubling time; details: +10 nM epirubicin
# Procedure: (§1) Cells were cultured in the presence or absence of epirubicin for up to 96 h (see Flow Cytometry for epirubicin concentrations). Cells were collected at 24, 48, 72 and 96 hours and counted by ViCell (Beckman Coulter, Mississauga, Canada). Data were analyzed in GraphPad Prism5 software.
# (§2) To determine cell-doubling time, the investigators cultured cells with or without epirubicin for up to 96 h. In the absence of epirubicin, the native MDA-MB-231 and MCF7 cell populations doubled every 25 h and 29 h, respectively (Table 2), whereas native SKBR3 and ZR-75-1 cells grew more slowly, doubling every 45 h and 50 h, respectively. In the presence of epirubicin, doubling time increased 2.8-fold for the MDA-MB-231 (p=0.0371), 2.5-fold for MCF7 (ns), 1.3-fold for SKBR3 (p=0.0494) and 1.9-fold for ZR-75-1 (p=0.0258) for native cells. In contrast to the native cell lines, there were no marked changes in the doubling time of the resistant cells, regardless of whether epirubicin was added (Table 2).
# [2] = system: MDA-MB-231 25 nM-Resistant; experiment: Proliferation, cell-doubling time; details: +25 nM epirubicin
# Procedure: as §1, §2
# MDA-MB-231 Native [3] = experiment: Proliferation, cell-doubling time
# Procedure: as §1, §2
# ZR-75-1 Native [4] = experiment: Proliferation, cell-doubling time
# Procedure: as §1, §2
# SKBR3 15 nM-Resistant = experiment: Proliferation, cell-doubling time; details: +15 nM epirubicin
# Procedure: as §1, §2
# MCF7 30 nM-Resistant = experiment: Proliferation, cell-doubling time; details: +30 nM epirubicin
# Procedure: as §1, §2
# MCF7 Native [5] = experiment: Proliferation, cell-doubling time
# Procedure: as §1, §2
# SKBR3 Native [6] = experiment: Proliferation, cell-doubling time
# Procedure: as §1, §2
# [7] = system: MDA-MB-231 resistant cells; experiment: Cell cycle, PI flow cytometry after double-thymidine block; details: 25 nM epirubicin, 48 h
# Procedure: (§3) (A-D) Cells were synchronized by a double-thymidine block and treated with DMSO or epirubicin at selection doses established for each resistant cell line: 25 nM epirubicin to MDA-MB-231, 30 nM epirubicin to MCF7, 15 nM epirubicin to SKBR3 and […]. Epirubicin concentration was increased to 100 nM for MCF7 and SKBR3 cells since G2/M block was not observed at the lower doses of epirubicin. Cells were collected at 48 h, stained by PI and analyzed by flow cytometry. Debris was gated out.
# (§4) For cell cycle, cells were synchronized by the double-thymidine block (Whitfield et al. 2000) and incubated with DMSO or epirubicin doses established for each cell line: 25 nM for MDA-MB-231, 30 nM for MCF7, 15 nM for SKBR3, 10 nM for ZR-75-1. Cells were collected at 48 h, fixed with 80% ethanol and incubated with 2 mg/ml RNase A and 0.1 mg/ml propidium iodide (both from Sigma, Oakville, Canada) prior to analysis. For apoptosis experiments, cells were treated with DMSO or epirubicin at concentrations described above, and collected at 72 h for staining with Annexin V apoptosis-detection eFluor450 (eBioscience, San Diego, USA). Data were collected by FACSCanto II and FACSDiva (BD Biosciences, Mississauga, Canada) and analyzed by FlowJo (Treestar, Ashland, USA).
# (§5) Cells were synchronized prior to exposure to DMSO or epirubicin. […] Therefore, overcoming a G2/M block may be part of the process leading to epirubicin resistance.
# MDA-MB-231 native cells = experiment: as above; details: 25 nM epirubicin, 48 h
# Procedure: as §3, §4, §5
# [8] = system: MCF7 epirubicin-resistant cells; experiment: as above; details: 100 nM epirubicin, 48 h
# Procedure: as §3, §4, §5
# ZR-75-1 resistant cells = experiment: as above; details: 10 nM epirubicin, 48 h
# Procedure: as §3, §4, §5
# [9] = system: SKBR3 epirubicin-resistant cells; experiment: as above; details: 100 nM epirubicin, 48 h
# Procedure: as §3, §4, §5
# MCF7 native cells = experiment: as above; details: 100 nM epirubicin, 48 h
# Procedure: as §3, §4, §5
# SKBR3 native cells = experiment: as above; details: 100 nM epirubicin, 48 h
# Procedure: as §3, §4, §5
# ZR-75-1 native cells = experiment: as above; details: 10 nM epirubicin, 48 h
# Procedure: as §3, §4, §5
# SKBR3 15 nM-R = experiment: Apoptosis, Annexin V flow cytometry; details: 72 h
# Procedure: as §4
# (§6) To assess the effects of epirubicin on apoptosis, apoptotic cells were scored by flow cytometry after 72 h of exposure to epirubicin. The apoptotic index was consistently lower for resistant cells compared to native controls (Table 1). In particular, MDA-MB-231 and SKBR3 resistant cells required a substantially higher concentration of epirubicin (1000 nM) to induce apoptosis; even at this concentration of epirubicin, the apoptotic index was still nearly 50% lower compared to the native cells (Table 1).
# MDA-MB-231 Native [10] = experiment: Apoptosis, Annexin V flow cytometry; details: 72 h
# Procedure: as §4, §6
# ZR-75-1 Native [11] = experiment: Apoptosis, Annexin V flow cytometry; details: 72 h
# Procedure: as §4, §6
# MDA-MB-231 25 nM-R = experiment: Apoptosis, Annexin V flow cytometry; details: 72 h
# Procedure: as §4, §6
# MCF7 30 nM-R = experiment: Apoptosis, Annexin V flow cytometry; details: 72 h
# Procedure: as §4, §6
# MCF7 Native [12] = experiment: Apoptosis, Annexin V flow cytometry; details: 72 h
# Procedure: as §4, §6
# SKBR3 Native [13] = experiment: Apoptosis, Annexin V flow cytometry; details: 72 h
# Procedure: as §4, §6
# ZR-75-1 10 nM-R = experiment: Apoptosis, Annexin V flow cytometry; details: 72 h
# Procedure: as §4, §6
smiles,measurement,setting,value
COc1cccc2c1C(=O)c1c(O)c3c(c(O)c1C2=O)C[C@@](O)(C(=O)CO)C[C@@H]3O[C@H]1C[C@H](N)[C@H](O)[C@H](C)O1 [doxorubicin],cross-resistance of epirubicin-resistant cell lines,[1],resistant
COc1cccc2c1C(=O)c1c(O)c3c(c(O)c1C2=O)C[C@@](O)(C(=O)CO)C[C@@H]3O[C@H]1C[C@H](N)[C@@H](O)[C@H](C)O1 [epirubicin],Doubling times,ZR-75-1 10 nM-Resistant,67 h
same,Doubling times,[2],43 h
same,Doubling times,"MDA-MB-231 Native [3]; MDA-MB-231 Native, +25 nM epirubicin",70 h
same,increase of doubling time in the presence of epirubicin,"MDA-MB-231 Native [3]; MDA-MB-231 native cells, p=0.0371",2.8 fold
same,Doubling times,"ZR-75-1 Native [4]; ZR-75-1 Native, +10 nM epirubicin",95 h
same,increase of doubling time in the presence of epirubicin,"ZR-75-1 Native [4]; ZR-75-1 native cells, p=0.0258",1.9 fold
same,Doubling times,SKBR3 15 nM-Resistant,66 h
same,Doubling times,MCF7 30 nM-Resistant,37 h
same,Doubling times,"MCF7 Native [5]; MCF7 Native, +30 nM epirubicin",74 h
same,increase of doubling time in the presence of epirubicin,"MCF7 Native [5]; MCF7 native cells, ns",2.5 fold
same,Doubling times,"SKBR3 Native [6]; SKBR3 Native, +15 nM epirubicin",57 h
same,increase of doubling time in the presence of epirubicin,"SKBR3 Native [6]; SKBR3 native cells, p=0.0494",1.3 fold
same,effect on cell cycle,[7],progressed through
same,effect on cell cycle,MDA-MB-231 native cells,arrested in G2/M phase
same,effect on cell cycle,[8],minimal effect
same,effect on cell cycle,ZR-75-1 resistant cells,progressed through
same,effect on cell cycle,[9],minimal effect
same,effect on cell cycle,MCF7 native cells,arrested in G2/M phase
same,effect on cell cycle,SKBR3 native cells,arrested in G2/M phase
same,effect on cell cycle,ZR-75-1 native cells,arrested in G2/M phase
same,Percentages of apoptotic cells,SKBR3 15 nM-R; 1 nM epirubicin,17%
same,Percentages of apoptotic cells,SKBR3 15 nM-R; 15 nM epirubicin,17%
same,Percentages of apoptotic cells,SKBR3 15 nM-R; 1000 nM epirubicin,34%
same,Percentages of apoptotic cells,MDA-MB-231 Native [10]; 1 nM epirubicin,17%
same,Percentages of apoptotic cells,MDA-MB-231 Native [10]; 25 nM epirubicin,41%
same,Percentages of apoptotic cells,MDA-MB-231 Native [10]; 1000 nM epirubicin,94%
same,Percentages of apoptotic cells,ZR-75-1 Native [11]; 1 nM epirubicin,44%
same,Percentages of apoptotic cells,ZR-75-1 Native [11]; 10 nM epirubicin,47%
same,Percentages of apoptotic cells,ZR-75-1 Native [11]; 1000 nM epirubicin,71%
same,Percentages of apoptotic cells,MDA-MB-231 25 nM-R; 1 nM epirubicin,10%
same,Percentages of apoptotic cells,MDA-MB-231 25 nM-R; 25 nM epirubicin,8%
same,Percentages of apoptotic cells,MDA-MB-231 25 nM-R; 1000 nM epirubicin,50%
same,Percentages of apoptotic cells,MCF7 30 nM-R; 1 nM epirubicin,24%
same,Percentages of apoptotic cells,MCF7 30 nM-R; 30 nM epirubicin,23%
same,Percentages of apoptotic cells,MCF7 30 nM-R; 1000 nM epirubicin,78%
same,Percentages of apoptotic cells,MCF7 Native [12]; 1 nM epirubicin,29%
same,Percentages of apoptotic cells,MCF7 Native [12]; 30 nM epirubicin,49%
same,Percentages of apoptotic cells,MCF7 Native [12]; 1000 nM epirubicin,77%
same,Percentages of apoptotic cells,SKBR3 Native [13]; 1 nM epirubicin,26%
same,Percentages of apoptotic cells,SKBR3 Native [13]; 15 nM epirubicin,24%
same,Percentages of apoptotic cells,SKBR3 Native [13]; 1000 nM epirubicin,59%
same,Percentages of apoptotic cells,ZR-75-1 10 nM-R; 1 nM epirubicin,28%
same,Percentages of apoptotic cells,ZR-75-1 10 nM-R; 10 nM epirubicin,29%
same,Percentages of apoptotic cells,ZR-75-1 10 nM-R; 1000 nM epirubicin,62%
